Reference: patent US6977262B2, “Dihydropyrazolopyridine compounds and pharmaceutical use thereof” (Mitsubishi Pharma Corporation, priority 2001, dated 2005)
Structures can show the parent of a compound that is named as a salt.

melting point | SMILES
174 °C | CNCC1=C(C#N)C(c2cccc3nonc23)c2c[nH]nc2N1.O=C(O)C(F)(F)F (stereo not drawn)
225 °C | N#CC1=C(C2CCCNC2)Nc2n[nH]cc2C1c1cccc(C#N)c1Br.O=C(O)C(F)(F)F (stereo not drawn)
232 °C | N#CC1=C(C2CCCCN2)Nc2n[nH]cc2C1c1cccc(C#N)c1Br.O=C(O)C(F)(F)F (stereo not drawn)
236 °C | N#CC1=C(C2CNCCO2)Nc2n[nH]cc2C1c1cccc(C#N)c1Br.O=C(O)C(F)(F)F (stereo not drawn)
> 270 °C | Cl.N#CC1=C(C2CCNCC2)Nc2n[nH]cc2C1c1cccc2nonc12 (stereo not drawn)
> 270 °C | Cl.N#CC1=C(C2CCNCC2)Nc2n[nH]cc2C1c1cccc(C#N)c1Br (stereo not drawn)
203 to 205 °C (dec.) | Cl.Cl.Cl.N#CC1=C(CN2CCN(c3cccc4ccccc34)CC2)Nc2n[nH]cc2C1c1ccccc1Cl (stereo not drawn)
204 to 206 °C (dec.) | CN1CCCN(CC2=C(C#N)C(c3ccccc3Cl)c3c[nH]nc3N2)CC1.Cl.Cl (stereo not drawn)
217 to 220 °C (dec.) | Cl.Cl.Cl.N#CC1=C(CN2CCN(c3ccccc3)CC2)Nc2n[nH]cc2C1c1ccccc1Cl (stereo not drawn)
204 °C | CCCC1=C([N+](=O)[O-])C(c2ccccc2[N+](=O)[O-])c2c[nH]nc2N1 (stereo not drawn)
174 °C | CN1CCCC(C2=C(C#N)C(c3cccc(C#N)c3Br)c3c[nH]nc3N2)C1 (stereo not drawn) (as salt: trifluoroacetate) [Example 1041, 4-(2-Bromo-3-cyanophenyl)-5-cyano-4,7-dihydro-6-(1-methylpiperidin-3-yl)-2H-pyrazolo[3,4-b]pyridine]
180 °C | CN1CCOC(C2=C(C#N)C(c3cccc(C#N)c3Br)c3c[nH]nc3N2)C1 (stereo not drawn) (as salt: trifluoroacetate) [Example 1046, 4-(2-Bromo-3-cyanophenyl)-5-cyano-4,7-dihydro-6-(4-methylmorpholin-2-yl)-2H-pyrazolo[3,4-b]pyridine]
> 270 °C | CN1CCC(C2=C(C#N)C(c3ccccc3Cl)c3c[nH]nc3N2)CC1 (stereo not drawn) (as salt: trifluoroacetate) [Example 1056, 4-(2-Chlorophenyl)-5-cyano-4,7-dihydro-6-(1-methylpiperidin-4-yl)-2H-pyrazolo[3,4-b]pyridine]
159 °C | CCCC1=C(C(=O)OCC)C(c2cccc3nonc23)c2c[nH]nc2N1 (single isomer, unassigned; (+)) [Example 116, (+)Ethyl 4-(2,1,3-benzoxadiazol-4-yl)-4,7-dihydro-6-propyl-2H-pyrazolo[3,4-b]pyridine-5-carboxylate]
159 to 161 °C | CCCC1=C(C(=O)OCC)C(c2cccc3c2OCCC3)c2c[nH]nc2N1 (single isomer, unassigned; (+)) [Example 187, (+)Ethyl 4-(3,4-dihydro-2H-benzopyran-8-yl)-4,7-dihydro-6-propyl-2H-pyrazolo[3,4-b]pyridine-5-carboxylate]
160 °C | CCCC1=C(C(=O)OCC)C(c2cccc3nonc23)c2c[nH]nc2N1 (single isomer, unassigned; (-)) [Example 117, (−)Ethyl 4-(2,1,3-benzoxadiazol-4-yl)-4,7-dihydro-6-propyl-2H-pyrazolo[3,4-b]pyridine-5-carboxylate]
160 to 161 °C | CCCC1=C(C(=O)OCC)C(c2cccc3c2OCCC3)c2c[nH]nc2N1 (single isomer, unassigned; (-)) [Example 188, (−)Ethyl 4-(3,4-dihydro-2H-benzopyran-8-yl)-4,7-dihydro-6-propyl-2H-pyrazolo[3,4-b]pyridine-5-carboxylate]
217 to 221 °C | CCOC(=O)C1=C(C)Nc2n[nH]cc2C1c1ccccc1Cl (stereo not drawn) [Example 1, Ethyl 4-(2-chlorophenyl)-4,7-dihydro-6-methyl-2H-pyrazolo[3,4-b]pyridine-5-carboxylate]
196 to 200 °C | CCOC(=O)C1=C(C)Nc2n[nH]cc2C1c1ccccc1OC (stereo not drawn) [Example 2, Ethyl 4,7-dihydro-4-(2-methoxyphenyl)-6-methyl-2H-pyrazolo[3,4-b]pyridine-5-carboxylate]
259 to 262 °C | CCOC(=O)C1=C(C)Nc2n[nH]cc2C1c1ccccc1C(F)(F)F (stereo not drawn) [Example 3, Ethyl 4,7-dihydro-6-methyl-4-(2-trifluoromethylphenyl)-2H-pyrazolo[3,4-b]pyridine-5-carboxylate]
235 °C | COC(=O)C1=C(C)Nc2n[nH]cc2C1c1ccccc1Cl (stereo not drawn) [Example 4, Methyl 4-(2-chlorophenyl)-4,7-dihydro-6-methyl-2H-pyrazolo[3,4-b]pyridine-5-carboxylate]

melting point | SMILES
207 °C | CC1=C(C(=O)OC(C)(C)C)C(c2ccccc2Cl)c2c[nH]nc2N1 (stereo not drawn) [Example 5, t-Butyl 4-(2-chlorophenyl)-4,7-dihydro-6-methyl-2H-pyrazolo[3,4-b]pyridine-5-carboxylate]
234 °C | CC1=C(C(=O)OCc2ccccc2)C(c2ccccc2Cl)c2c[nH]nc2N1 (stereo not drawn) [Example 7, Benzyl 4-(2-chlorophenyl)-4,7-dihydro-6-methyl-2H-pyrazolo[3,4-b]pyridine-5-carboxylate]
229 °C | CC1=C(C(=O)N(C)C)C(c2ccccc2Cl)c2c[nH]nc2N1 (stereo not drawn) [Example 8, 4-(2-Chlorophenyl)-5-dimethylaminocarbonyl-4,7-dihydro-6-methyl-2H-pyrazolo[3,4-b]pyridine]
220 °C | CC1=C(C(=O)NN)C(c2ccccc2Cl)c2c[nH]nc2N1 (stereo not drawn) [Example 9, 4-(2-Chlorophenyl)-5-hydrazinocarbonyl-4,7-dihydro-6-methyl-2H-pyrazolo[3,4-b]pyridine]
110 to 115 °C | CCOC(=O)C1=C(C(F)(F)F)Nc2n[nH]cc2C1c1ccccc1 (stereo not drawn) [Example 12, Ethyl 4,7-dihydro-4-phenyl-6-trifluoromethyl-2H-pyrazolo[3,4-b]pyridine-5-carboxylate]
119 to 120 °C | CCOC(=O)C1=C(C(F)(F)F)Nc2n[nH]cc2C1c1ccccc1F (stereo not drawn) [Example 13, Ethyl 4-(2-fluorophenyl)-4,7-dihydro-6-trifluoromethyl-2H-pyrazolo[3,4-b]pyridine-5-carboxylate]
171 to 172 °C | CCOC(=O)C1=C(C(F)(F)F)Nc2n[nH]cc2C1c1ccccc1Cl.O=C(O)/C=C\C(=O)O (stereo not drawn) [Example 14, Ethyl 4-(2-chlorophenyl)-4,7-dihydro-6-trifluoromethyl-2H-pyrazolo[3,4-b]pyridine-5-carboxylate maleate]
144 to 146 °C | CCOC(=O)C1=C(C(F)(F)F)Nc2n[nH]cc2C1c1ccccc1OC (stereo not drawn) [Example 15, Ethyl 4,7-dihydro-4-(2-methoxyphenyl)-6-trifluoromethyl-2H-pyrazolo[3,4-b]pyridine-5-carboxylate]
182 to 186 °C | CCOC(=O)C1=C(C(F)(F)F)Nc2n[nH]cc2C1c1ccccc1C(F)(F)F (stereo not drawn) [Example 16, Ethyl 4,7-dihydro-6-trifluoromethyl-4-(2-trifluoromethylphenyl)-2H-pyrazolo[3,4-b]pyridine-5-carboxylate]
144 to 145 °C | CCOC(=O)C1=C(C(F)(F)F)Nc2n[nH]cc2C1c1cccc(Cl)c1 (stereo not drawn) [Example 17, Ethyl 4-(3-chlorophenyl)-4,7-dihydro-6-trifluoromethyl-2H-pyrazolo[3,4-b]pyridine-5-carboxylate]
176 to 178 °C | CCOC(=O)C1=C(C(F)(F)F)Nc2n[nH]cc2C1c1ccc(Cl)cc1 (stereo not drawn) [Example 18, Ethyl 4-(4-chlorophenyl)-4,7-dihydro-6-trifluoromethyl-2H-pyrazolo[3,4-b]pyridine-5-carboxylate]
159 to 161 °C | CCOC(=O)C1=C(C(F)(F)F)Nc2n[nH]cc2C1c1ccc(OC)cc1 (stereo not drawn) [Example 19, Ethyl 4,7-dihydro-4-(4-methoxyphenyl)-6-trifluoromethyl-2H-pyrazolo[3,4-b]pyridine-5-carboxylate]
157 to 160 °C | CCOC(=O)C1=C(C(F)(F)F)Nc2n[nH]cc2C1c1ccc(C(=O)OCC)cc1 (stereo not drawn) [Example 20, Ethyl 4-(4-ethoxycarbonylphenyl)-4,7-dihydro-6-trifluoromethyl-2H-pyrazolo[3,4-b]pyridine-5-carboxylate]
165 to 168 °C | CCOC(=O)C1=C(C(F)(F)F)Nc2n[nH]c(C)c2C1c1ccccc1Cl (stereo not drawn) [Example 21, Ethyl 4-(2-chlorophenyl)-4,7-dihydro-3-methyl-6-trifluoromethyl-2H-pyrazolo[3,4-b]pyridine-5-carboxylate]
157 to 161 °C | CCOC(=O)C1=C(C(F)(F)F)Nc2n[nH]cc2C1c1cccs1 (stereo not drawn) [Example 22, Ethyl 4,7-dihydro-4-(thiophen-2-yl)-6-trifluoromethyl-2H-pyrazolo[3,4-b]pyridine-5-carboxylate]
140 to 145 °C | CCOC(=O)C1=C(C(F)(F)F)Nc2n[nH]cc2C1c1ccsc1 (stereo not drawn) [Example 23, Ethyl 4,7-dihydro-4-(thiophen-3-yl)-6-trifluoromethyl-2H-pyrazolo[3,4-b]pyridine-5-carboxylate]
119 to 120 °C | CCOC(=O)C1=C(C(F)(F)F)Nc2n[nH]cc2C1c1cccc2ccccc12 (stereo not drawn) [Example 24, Ethyl 4,7-dihydro-4-(1-naphthyl)-6-trifluoromethyl-2H-pyrazolo[3,4-b]pyridine-5-carboxylate]
139 to 141 °C | CCCC1=C(C(=O)OCC)C(c2ccccc2)c2c[nH]nc2N1.O=C(O)/C=C\C(=O)O (stereo not drawn) [Example 25, Ethyl 4,7-dihydro-4-phenyl-6-propyl-2H-pyrazolo[3,4-b]pyridine-5-carboxylate maleate]
192 to 194 °C | CCCC1=C(C(=O)OCC)C(c2ccccc2F)c2c[nH]nc2N1 (stereo not drawn) [Example 26, Ethyl 4-(2-fluorophenyl)-4,7-dihydro-6-propyl-2H-pyrazolo[3,4-b]pyridine-5-carboxylate]
202 to 205 °C | CCCC1=C(C(=O)OCC)C(c2ccccc2Cl)c2c[nH]nc2N1 (stereo not drawn) [Example 27, Ethyl 4-(2-chlorophenyl)-4,7-dihydro-6-propyl-2H-pyrazolo[3,4-b]pyridine-5-carboxylate]
203 to 207 °C | CCCC1=C(C(=O)OC)C(c2ccccc2Cl)c2c[nH]nc2N1 (stereo not drawn) [Example 28, Methyl 4-(2-chlorophenyl)-4,7-dihydro-6-propyl-2H-pyrazolo[3,4-b]pyridine-5-carboxylate]
